Experimental data published in US8133913B2, “Substituted indeno [1,2-b]indole derivatives as novel inhibitors of protein kinase CK2 and their use as tumor therapeutic agents, cytostatics and diagnostic aids” (Heinrich-Heine Universitat Dusseldof, priority 2006, dated 2012).

Key:
5637 = assay: Proliferation of tumor cell lines (Bracht et al.); assay type: cell-based; conditions: for activity at 20 µM: 5637, tested at 20 μM
SISO = assay: Proliferation of tumor cell lines (Bracht et al.); assay type: cell-based; conditions: for activity at 20 µM: tested at 20 μM
KYSE-70 = assay: Proliferation of tumor cell lines (Bracht et al.); assay type: cell-based; conditions: Homo sapiens; for activity at 20 µM: KYSE-70, tested at 20 μM
LCLC = assay: Proliferation of tumor cell lines (Bracht et al.); assay type: cell-based; conditions: read-out: IC50 (μM) Mean, inhibition of cell proliferation
A427 = assay: Proliferation of tumor cell lines (Bracht et al.); assay type: cell-based; conditions: Homo sapiens, A-427, read-out: IC50 (μM) Mean, inhibition of cell proliferation
DAN-G = assay: Proliferation of tumor cell lines (Bracht et al.); assay type: cell-based; conditions: read-out: IC50 (μM) Mean, inhibition of cell proliferation
RT-4 = assay: Proliferation of tumor cell lines (Bracht et al.); assay type: cell-based; conditions: Homo sapiens, read-out: IC50 (μM) Mean, inhibition of cell proliferation
MCF-7 = assay: Proliferation of tumor cell lines (Bracht et al.); assay type: cell-based; conditions: Homo sapiens, MCF7, read-out: IC50 (μM) Mean, inhibition of cell proliferation
[1] = biological target: T1, human CK2 protein kinase (holoenzyme) (Homo sapiens, UniProt P68400); assay: Inhibition of recombinant human CK2 protein kinase (holoenzyme), radiometric filter assay with peptide […]; assay type: biochemical; conditions: for inhibition at 10 µM: 10 μM compound, DMSO control = 100% CK2 activity, at least three independent experiments; for IC50: concentration range 30 μM to 0.01 μM, 100 μM ATP in assay buffer
T1 construct: made in house; host or cells: E. coli BL21(DE3), pT7-7 or bicistronic pET11d-CK2α, β

CK2 = conditions: known CK2 inhibitors, investigated predominantly on the rat enzyme; cited from earlier work

T1 sequence (P68400 whole entry): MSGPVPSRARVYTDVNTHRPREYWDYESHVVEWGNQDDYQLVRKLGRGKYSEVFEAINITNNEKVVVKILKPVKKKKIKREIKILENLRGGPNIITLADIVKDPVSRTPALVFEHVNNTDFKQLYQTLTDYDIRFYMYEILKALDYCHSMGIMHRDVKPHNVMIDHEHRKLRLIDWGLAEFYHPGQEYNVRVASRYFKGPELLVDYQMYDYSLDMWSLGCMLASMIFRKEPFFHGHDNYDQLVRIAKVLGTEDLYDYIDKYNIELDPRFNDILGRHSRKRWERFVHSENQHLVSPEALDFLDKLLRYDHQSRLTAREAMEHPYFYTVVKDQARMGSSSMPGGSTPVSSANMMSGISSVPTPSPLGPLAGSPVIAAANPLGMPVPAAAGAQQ
T1 sequence (P67870 whole entry partner): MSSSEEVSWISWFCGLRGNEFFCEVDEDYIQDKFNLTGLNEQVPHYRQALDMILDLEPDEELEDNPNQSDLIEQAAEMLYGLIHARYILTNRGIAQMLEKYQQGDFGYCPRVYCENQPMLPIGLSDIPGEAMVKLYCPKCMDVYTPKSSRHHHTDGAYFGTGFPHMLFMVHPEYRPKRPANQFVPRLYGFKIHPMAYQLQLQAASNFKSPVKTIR

| SMILES | activity at 20 µM (5637; read-out: T/C (%) Mean) [%] | melting point | activity at 20 µM (SISO; read-out: T/C (%) Mean) [%] | activity at 20 µM (KYSE-70; read-out: T/C (%) Mean) [%] | also measured |
| --- | --- | --- | --- | --- | --- |
| O=C1CCCc2c1c1c(n2Cc2ccccc2)-c2ccccc2C1=O [Compound 4c, 5-Benzyl-5,6,7,8-tetrahydroindeno[1,2-b]indole-9,10-dione] | 53.6 | 185 °C | 86.4 | 65.8 |  |
| O=C1CCCc2c1c1c(n2CCc2ccccc2)-c2ccccc2C1=O [Compound 4d, 5-Phenethyl-5,6,7,8-tetrahydro-indeno[1,2-b]indole-9,10-dione] | 48 |  | 65.5 | 67.5 | IC50 (LCLC): 5.66 µM; IC50 (A427): > 20 µM; IC50 (DAN-G): > 20 µM; IC50 (5637; 5637, read-out: IC50 (μM) Mean, inhibition of cell proliferation): 10.7 µM; IC50 (SISO; read-out: IC50 (μM) Mean, inhibition of cell proliferation): 12.3 µM; IC50 (RT-4): > 20 µM; IC50 (KYSE-70; KYSE-70, read-out: IC50 (μM) Mean, inhibition of cell proliferation): > 20 µM; IC50 (MCF-7): 6.53 µM; inhibition at 10 µM [1]: 67%; IC50 [1]: 0.82 µM |
| O=C1CCCc2[nH]c3c(c21)C(=O)c1ccccc1-3 [Compound 4a, 5,6,7,8-Tetrahydroindeno[1,2-b]indole-9,10-dione] | 80.9 | 332 to 333 °C | 99.9 | 77.5 |  |
| CC(C)n1c2c(c3c(O)cccc31)C(=O)c1ccccc1-2 [Compound 5b, 9-Hydroxy-5-isopropyl-5H-indeno[1,2-b]indol-10-one] | 77.5 |  | 104 | 77.6 |  |
| O=C1CCCc2c1c1c(n2CCCO)-c2ccccc2C1=O [Example 12, 5-(3-Hydroxypropyl)-5,6,7,8-tetrahydro-indeno[1,2-b]indole-9,10-dione] |  | 241 °C |  |  |  |
| CCOCCCn1c2c(c3c1-c1ccccc1C3=O)C(=O)CCC2 [Example 16, 5-Ethoxypropyl-5,6,7,8-tetrahydro-indeno[1,2-b]indole-9,10-dione] |  | 129 °C |  |  |  |
| COc1ccc(CCn2c3c(c4c2-c2ccccc2C4=O)C(=O)CCC3)cc1OC [Compound 4j, 5-[2-(3,4-Dimethoxyphenyl)ethyl]-5,6,7,8-tetrahydroindeno[1,2-b]indole-9,10-dione] | 101 |  | 105 | 91.5 |  |
| O=C1CCCc2c1c1c(n2-c2ccccc2)-c2ccccc2C1=O [Compound 4g, 5-Phenyl-5,6,7,8-tetrahydroindeno[1,2-b]indole-9,10-dione] |  |  |  |  | activity at 10 µM (5637; 5637, tested at 10 μM (**), read-out: T/C (%) Mean): 86.3%; activity at 10 µM (SISO; tested at 10 μM (**), read-out: T/C (%) Mean): 101%; activity at 10 µM (KYSE-70; KYSE-70, tested at 10 μM (**), read-out: T/C (%) Mean): 81.8%; inhibition at 10 µM [1]: 60%; IC50 [1]: 1.44 µM |
| COc1ccc(CCn2c3c(c4c2-c2ccccc2C4=O)C(=O)CCC3)cc1OC (hydrate or solvate) [Compound 4j, 5-[2-(3,4-Dimethoxyphenyl)ethyl]-5,6,7,8-tetrahydroindeno[1,2-b]indole-9,10-dione] |  | 189 to 190 °C |  |  |  |
| O=C(O)Cn1c2c(c3c1-c1ccccc1C3=O)C(=O)CCC2 [Example 13, (9,10-Dioxo-6,8,9,10-tetrahydro-7H-indeno[1,2-b]indol-5-yl)acetic acid] |  | 279 to 280 °C (dec.) |  |  |  |
| O=C1CC(c2ccccc2)Cc2c1c1c(n2Cc2ccccc2)-c2ccccc2C1=O (stereo not shown) [Compound 4n, 5-Benzyl-7-phenyl-5,6,7,8-tetrahydro-indeno[1,2-b]indole-9,10-dione] | 39.4 |  | 80.9 | 75.2 |  |
| COC(=O)C1C(=O)c2c3c(n(-c4ccccc4)c2CC1C)-c1ccccc1C3=O (stereo not shown) [Example 20, Methyl 7-methyl-9,10-dioxo-5-phenyl-5,6,7,8,9,10-hexahydroindeno[1,2-b]indole-8-carboxylate] |  | 249 to 250 °C |  |  |  |
| CC1CC(=O)c2c3c(n(CCc4ccccc4)c2C1)-c1ccccc1C3=O (stereo not shown) [Compound 4p, 7-Methyl-5-phenethyl-5,6,7,8-tetrahydro-indeno[1,2-b]indole-9,10-dione] | 49.8 |  | 96.3 | 72.1 |  |
| CC(c1ccccc1)n1c2c(c3c1-c1ccccc1C3=O)C(=O)CCC2 (racemic) [Compound 4f, DL-5-(1-phenylethyl)-5,6,7,8-tetrahydro-indeno[1,2-b]indole-9,10-dione] | 64.9 | 201 °C | 95.8 | 62.3 | inhibition at 10 µM [1]: 66% |
| Cc1cc(O)c2c(c1)C(=O)c1cc(O)cc(O)c1C2=O [emodin] |  |  |  |  | IC50 (CK2): 2 µM |
| CN(C)CCn1c2c(c3c1-c1ccccc1C3=O)C(=O)CCC2 [Example 11, 5-(2-Dimethylaminoethyl)-5,6,7,8-tetra-hydroindeno[1,2-b]indole-9,10-dione] |  | 178 °C |  |  |  |
| COc1ccc(Cn2c3c(c4c2-c2ccccc2C4=O)C(=O)CCC3)cc1 [Compound 4i, 5-(4-Methoxybenzyl)-5,6,7,8-tetrahydro-indeno[1,2-b]indole-9,10-dione] | 78.2 | 198 to 199 °C | 93.6 | 79.2 |  |
| O=c1ccc(=O)c2c1c1c(=O)c3ccccc3c1n2CCc1ccccc1 [Compound 6d, 5-Phenethyl-5H-indeno[1,2-b]indole-6,9,10-trione] |  |  |  |  | activity at 5 µM (5637; 5637, tested at 5 μM (*), read-out: T/C (%) Mean): 69.7%; activity at 5 µM (SISO; tested at 5 μM (*), read-out: T/C (%) Mean): 87.2%; activity at 5 µM (KYSE-70; KYSE-70, tested at 5 μM (*), read-out: T/C (%) Mean): 92%; inhibition at 10 µM [1]: 70%; IC50 [1]: 5.74 µM |
| O=C1CCCc2c1c1c(n2CCO)-c2ccccc2C1=O [Example 14, 5-(2-Hydroxyethyl)-5,6,7,8-tetrahydro-indeno[1,2-b]indole-9,10-dione] |  | 262 to 263 °C |  |  |  |
| COC(=O)C1C(=O)c2c([nH]c3c2C(=O)c2ccccc2-3)CC1C (stereo not shown) [Compound 4l, Methyl 7-methyl-9,10-dioxo-5,6,7,8,9,10-hexahydroindeno[1,2-b]indole-8-carboxylate] | 79.1 | 287 °C | 104 | 98.8 |  |
